Assays:
Test in all cases: relative viability (nuclei count vs DMSO), 5 days (fraction); higher = more cells survive
[1] = compound: CC(=O)Nc1cccc(-n2c(=O)n(C3CC3)c(=O)c3c(Nc4ccc(I)cc4F)n(C)c(=O)c(C)c32)c1 [Trametinib] + C[C@@H](Oc1cc(-c2cnn(C3CCNCC3)c2)cnc1N)c1c(Cl)ccc(F)c1Cl [Crizotinib] (partner 1 µM)
In short: (§1)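 Lung cancer cell lines in 1536-well plates got either a single drug or a fixed anchor-drug dose together with five library-drug doses (not always all listed) in √10 steps, by pin tool, on the day after seeding. Nuclei were counted after 5 days, and relative viability is the treated-to-vehicle ratio of nuclei counts. Values are medians of duplicate plates.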

[2] = compound: CC(=O)Nc1cccc(-n2c(=O)n(C3CC3)c(=O)c3c(Nc4ccc(I)cc4F)n(C)c(=O)c(C)c32)c1 [Trametinib] + C[C@]1(O)C[C@@H](c2nc(-c3ccc4ccc(-c5ccccc5)nc4c3)c3c(N)nccn32)C1 [Linsitinib] (partner 1 µM)
In short: as §1

[3] = compound: CN1C=C(C2=CC=CC=C21)/C=C\3/C4=C(C=CC=N4)NC3=O + C[C@@H](Oc1cc(-c2cnn(C3CCNCC3)c2)cnc1N)c1c(Cl)ccc(F)c1Cl [Crizotinib] (partner 1 µM)
In short: as §1

[4] = compound: CN1C=C(C2=CC=CC=C21)/C=C\3/C4=C(C=CC=N4)NC3=O + Nc1nc2[nH]cc(CCc3ccc(C(=O)N[C@@H](CCC(=O)O)C(=O)O)cc3)c2c(=O)[nH]1 [Pemetrexed] (partner 0.2 µM)
In short: as §1

Cell Line	relative viability ([1]; first compound 0.0025 µM)	relative viability ([1]; first compound 0.007906 µM)	relative viability ([1]; first compound 0.025 µM)	relative viability ([1]; first compound 0.07906 µM)	relative viability ([1]; first compound 0.25 µM)	relative viability ([2]; first compound 0.0025 µM)	relative viability ([2]; first compound 0.007906 µM)	relative viability ([2]; first compound 0.025 µM)	relative viability ([2]; first compound 0.07906 µM)	relative viability ([2]; first compound 0.25 µM)	relative viability ([3]; first compound 0.02 µM)	relative viability ([3]; first compound 0.06325 µM)	relative viability ([3]; first compound 0.2 µM)	relative viability ([3]; first compound 0.6325 µM)	relative viability ([3]; first compound 2 µM)	relative viability ([4]; first compound 0.02 µM)	relative viability ([4]; first compound 0.06325 µM)	relative viability ([4]; first compound 0.2 µM)	relative viability ([4]; first compound 0.6325 µM)	relative viability ([4]; first compound 2 µM)
NCI-H1993	0.796	0.716	0.797	0.674	0.662	0.774	0.752	0.719	0.723	0.745	0.726	0.816	0.741	0.868	0.87	0.564	0.515	0.641	0.457	0.534
A549	0.64	0.44	0.394	0.181	0.074	0.461	0.387	0.203	0.231	0.0933	0.631	0.755	0.724	0.828	0.75					
ChaGo-K-1	1.13	1.07	1.1	1.01	0.761						1.07	1.11		1.16	1.21	0.252	0.255	0.241	0.269	0.245
NCI-H2342																0.704	0.747	0.736	0.756	0.767
NCI-H1648																0.729	0.777	0.922	0.691	0.739
ABC-1	0.99	1.03	0.972	1.07	0.634	0.673	0.462	0.537	0.421	0.41	1.03	0.988	1.03	1.04	1.43					
NCI-H727	0.381	0.278	0.279	0.195	0.206	0.21	0.164	0.104	0.144	0.155	0.835	0.614	0.691	0.81	0.808					
NCI-H522																0.743	0.775	0.878	1.1	0.998
NCI-H1299	0.951	0.926	0.869	0.848	0.521	0.955	0.953	0.9	0.726	0.386	0.937	0.945	0.911	1.07	0.901					
Calu-6	0.737	0.557	0.398	0.168	0.107	0.951	0.719	0.35	0.15	0.124	0.675	0.783	0.815	0.772	0.816					
